The text below walks through data of publication PMC9317327, “Functional Characterization, Antimicrobial Effects, and Potential Antibacterial Mechanisms of NpHM4, a Derived Peptide of Nautilus pompilius Hemocyanin” (Marine Drugs, 2022).

Converted amounts (≈) assume the structure as drawn. Like-named read-outs stand apart in the source and are kept apart here. Where a SMILES comes first, the peptide text is derived from it.

Format in all cases: cell-based
Assay [1] deals with Bacillus subtilis ATCC 6051. The settings on record: ATCC 6051, 2 h, pH 7.2. Here is the method: (§1) The antimicrobial activity of the peptides was determined against Gram-negative bacteria, including V. alginolyticus (A056), E. coli (DH5α), and V. parahaemolyticus (2013V-1174), which were obtained from the South China Sea Institute of Oceanology, Chinese Academy of Sciences. The activity was also tested against the Gram-positive bacteria S. aureus ATCC 25923 and B. subtilis ATCC 6051. To assess the antimicrobial activities of the peptides, bacterial cells were cultured to the logarithmic growth phase and then diluted to 10^6–1.5 × 10^7 CFU/mL with PBS (0.01 M, pH 7.2). Equal volumes of serially diluted peptides, with concentrations ranging from 30 to 450 μM in PBS, and bacteria suspension were mixed and incubated at room temperature for 2 h, respectively. Then, 6 μL of each serially diluted mixture was plated on sterile 12-well agar plates, followed by incubation for 11 to 12 h, and the colonies were assessed to determine the MICs and MBCs. The MICs were expressed (in µM) as an [a]–[b] concentration interval, where [a] is the highest peptide concentration at which bacteria were growing and [b] is the lowest concentration that caused 100% growth inhibition. Cultures without peptides were employed as controls. All the tests were performed in triplicate and repeated three times.

Assay [2] relates to Escherichia coli (DH5α). As for the experimental part:
as §1

In assay [3] the test system is Staphylococcus aureus ATCC 25923. The settings on record: ATCC 25923, 2 h, pH 7.2. As for the experimental part:
as §1

Assay [4] deals with Vibrio alginolyticus (A056). As for the experimental part:
as §1

Assay [5] concerns Vibrio parahaemolyticus 2013V-1174. The settings on record: 2 h, pH 7.2. Here is the method:
as §1

For `CC[C@H](C)[C@H](NC(=O)CNC(=O)[C@H](Cc1c[nH]cn1)NC(=O)[C@H](CC(C)C)NC(=O)[C@H](CC(C)C)NC(=O)[C@H](Cc1ccccc1)NC(=O)CNC(=O)[C@H](C)NC(=O)[C@H](CCCNC(=N)N)NC(=O)[C@@H](NC(=O)[C@@H](N)CCCNC(=N)N)C(C)C)C(=O)N[C@@H](CCCCN)C(=O)N[C@@H](CCCNC(=N)N)C(=O)N[C@@H](CO)C(=O)N[C@@H](CCCNC(=N)N)C(=O)O` [NpHM5] (H-RVRAGFLLHGIKRSR-OH), the MBC in assay [1] was above 50 µM; in assay [2] (DH5α, 2 h, pH 7.2) it was above 50 µM; in assay [3], above 50 µM; in assay [4] (2 h, pH 7.2), above 70 µM; in assay [5] it was above 70 µM. The MIC in assay [1] is above 50 µM; in assay [2] (DH5α, 2 h, pH 7.2) it was above 50 µM; in assay [3], above 50 µM; in assay [4] (2 h, pH 7.2) it was 15 to 70 µM; in assay [5], 15 to 70 µM.

On to `CC[C@H](C)[C@H](NC(=O)CNC(=O)[C@H](Cc1c[nH]cn1)NC(=O)[C@H](CC(C)C)NC(=O)[C@H](CC(C)C)NC(=O)[C@H](Cc1ccccc1)NC(=O)CNC(=O)[C@H](C)NC(=O)[C@H](Cc1ccccc1)NC(=O)[C@@H](NC(=O)[C@@H](N)CCCNC(=N)N)C(C)C)C(=O)N[C@@H](CCCCN)C(=O)N[C@@H](CCCNC(=N)N)C(=O)N[C@@H](CO)C(=O)N[C@@H](C)C(=O)O` [NpHN5] (H-RVFAGFLLHGIKRSA-OH), for which the MBC turned out to be 450 µM (≈ 752 µg/mL) in assay [2] (E. coli DH5α, 2 h in PBS pH 7.2 at room temperature, plated 11 to 12 h, triplicate, repeated three times) and 250 µM (≈ 418 µg/mL) in assay [4] (V. alginolyticus A056, 2 h in PBS pH 7.2 at room temperature, plated 11 to 12 h, triplicate, repeated three times). Moreover, the MIC was in the range of 200 to 450 µM in assay [2] (E. coli DH5α, peptide mixed with bacteria (10^6–1.5 × 10^7 CFU/mL) in PBS 0.01 M pH 7.2, 2 h room temperature, plated on agar 11 to 12 h, interval [a]–[b]: [a] highest concentration with growth, [b] lowest with 100% growth inhibition, triplicate, repeated three times) and 50 to 250 µM in assay [4] (V. alginolyticus A056, 2 h in PBS pH 7.2 at room temperature, plated 11 to 12 h, interval [a]–[b]: [a] highest concentration with growth, [b] lowest with 100% growth inhibition, triplicate, repeated three times).

In the case of `CC[C@H](C)[C@H](NC(=O)CNC(=O)[C@H](CO)NC(=O)[C@H](CC(C)C)NC(=O)[C@H](CCCNC(=N)N)NC(=O)[C@H](Cc1ccccc1)NC(=O)[C@H](CO)NC(=O)[C@H](C)NC(=O)[C@@H](N)Cc1ccccc1)C(=O)N[C@@H](Cc1c[nH]cn1)C(=O)N[C@H](C(=O)N[C@@H](CO)C(=O)N[C@@H](C)C(=O)N[C@@H](CC(N)=O)C(=O)N[C@H](C(=O)N[C@@H](CCCCN)C(=O)N[C@H](C(=O)N[C@@H](CC(C)C)C(=O)O)C(C)C)C(C)C)[C@@H](C)O` [NpHN2] (H-FASFRLSGIHTSANVKVL-OH), in assay [2] (DH5α, 2 h, pH 7.2), the MBC was above 500 µM and the MIC was in the range of 200 to 500 µM. For the same compound, in assay [4] (2 h, pH 7.2), the minimal bactericidal concentration (MBC) was above 280 µM and the MIC was 100 to 280 µM.

In assay [2] (DH5α, 2 h, pH 7.2), `CSCC[C@H](NC(=O)[C@H](Cc1ccccc1)NC(=O)CNC(=O)[C@H](C)NC(=O)[C@H](Cc1ccccc1)NC(=O)[C@@H](N)C(C)C)C(=O)N[C@@H](CC(C)C)C(=O)N[C@@H](Cc1c[nH]cn1)C(=O)NCC(=O)N[C@@H](Cc1ccccc1)C(=O)N[C@@H](CCCCN)C(=O)N[C@@H](CCCCN)C(=O)N[C@@H](CO)C(=O)N[C@@H](C)C(=O)N[C@@H](CC(C)C)C(=O)N[C@H](C(=O)O)C(C)C` [NpHN1] (H-VFAGFMLHGFKKSALV-OH) had an MBC above 450 µM and an MIC of 250 to 450 µM. In assay [4] (2 h, pH 7.2), this compound registered an MBC above 260 µM and an MIC of 50 to 260 µM.

Consider `CC[C@H](C)[C@H](NC(=O)CNC(=O)[C@H](Cc1c[nH]cn1)NC(=O)[C@H](CCCNC(=N)N)NC(=O)[C@H](CC(C)C)NC(=O)[C@H](Cc1ccccc1)NC(=O)CNC(=O)[C@H](C)NC(=O)[C@H](CCCNC(=N)N)NC(=O)[C@@H](NC(=O)[C@@H](N)CCCNC(=N)N)C(C)C)C(=O)N[C@@H](CCCCN)C(=O)N[C@@H](CCCNC(=N)N)C(=O)N[C@@H](CO)C(=O)N[C@@H](CCCNC(=N)N)C(=O)O` [NpHM7] (H-RVRAGFLRHGIKRSR-OH), for which the MBC in assay [1] is above 150 µM; in assay [2] (DH5α, 2 h, pH 7.2) it was above 150 µM; in assay [3] it was above 150 µM; in assay [4] (2 h, pH 7.2), above 150 µM; in assay [5], above 150 µM. Moreover, the MIC in assay [1] is above 150 µM; in assay [2] (DH5α, 2 h, pH 7.2), above 150 µM; in assay [3], above 150 µM; in assay [4] (2 h, pH 7.2), above 150 µM; in assay [5] it was above 150 µM.

On to `CC[C@H](C)[C@H](NC(=O)CNC(=O)[C@H](Cc1c[nH]cn1)NC(=O)[C@H](CC(C)C)NC(=O)[C@H](CC(C)C)NC(=O)[C@H](Cc1ccccc1)NC(=O)CNC(=O)[C@H](C)NC(=O)[C@H](CCCNC(=N)N)NC(=O)[C@@H](NC(=O)[C@@H](N)CCCNC(=N)N)C(C)C)C(=O)N[C@@H](CCCCN)C(=O)N[C@@H](CCCNC(=N)N)C(=O)N[C@@H](CO)C(=O)N[C@@H](C)C(=O)O` [NpHM3] (H-RVRAGFLLHGIKRSA-OH), for which the MBC is above 60 µM in assay [1]; above 60 µM in assay [2] (DH5α, 2 h, pH 7.2); above 60 µM in assay [3]; above 150 µM in assay [4] (2 h, pH 7.2); above 60 µM in assay [5]. The MIC in assay [1] is above 60 µM; in assay [2] (DH5α, 2 h, pH 7.2), 15 to 50 µM; in assay [3], above 60 µM; in assay [4] (2 h, pH 7.2), 30 to 75 µM; in assay [5], 15 to 60 µM.

Take `CC[C@H](C)[C@H](NC(=O)CNC(=O)[C@H](Cc1c[nH]cn1)NC(=O)[C@H](CC(C)C)NC(=O)[C@H](CC(C)C)NC(=O)[C@H](Cc1ccccc1)NC(=O)CNC(=O)[C@H](C)NC(=O)[C@H](Cc1ccccc1)NC(=O)[C@@H](NC(=O)[C@@H](N)CCCNC(=N)N)C(C)C)C(=O)N[C@@H](CCCCN)C(=O)N[C@@H](CCCNC(=N)N)C(=O)N[C@@H](CO)C(=O)N[C@@H](CCCNC(=N)N)C(=O)O` [NpHM2] (H-RVFAGFLLHGIKRSR-OH): the MIC in assay [2] (DH5α, 2 h, pH 7.2) was 30 to 60 µM; in assay [4] (2 h, pH 7.2), 70 to 150 µM; in assay [5], 30 to 60 µM. The MBC in assay [4] (2 h, pH 7.2) is above 75 µM; in assay [5] it was above 60 µM.

For the compound `CC[C@H](C)[C@H](NC(=O)CNC(=O)[C@H](Cc1c[nH]cn1)NC(=O)[C@H](CCCNC(=N)N)NC(=O)[C@H](CC(C)C)NC(=O)[C@H](Cc1ccccc1)NC(=O)CNC(=O)[C@H](C)NC(=O)[C@H](Cc1ccccc1)NC(=O)[C@@H](NC(=O)[C@@H](N)CCCNC(=N)N)C(C)C)C(=O)N[C@@H](CCCCN)C(=O)N[C@@H](CCCNC(=N)N)C(=O)N[C@@H](CO)C(=O)N[C@@H](C)C(=O)O` [NpHM1] (H-RVFAGFLRHGIKRSA-OH), the MBC in assay [1] was above 60 µM; in assay [2] (DH5α, 2 h, pH 7.2), above 60 µM; in assay [3] it was above 60 µM; in assay [4] (2 h, pH 7.2), above 150 µM; in assay [5], above 60 µM. Besides, the MIC in assay [1] is above 60 µM; in assay [2] (DH5α, 2 h, pH 7.2) it was 15 to 60 µM; in assay [3], above 60 µM; in assay [4] (2 h, pH 7.2), 50 to 150 µM; in assay [5], 15 to 60 µM.

Turning to `CC[C@H](C)[C@H](NC(=O)[C@H](CS)NC(=O)[C@H](CS)NC(=O)[C@H](C)NC(=O)[C@H](Cc1ccc(O)cc1)NC(=O)[C@H](CCCNC(=N)N)NC(=O)[C@H](Cc1c[nH]cn1)NC(=O)[C@H](CC(C)C)NC(=O)[C@H](C)NC(=O)[C@@H](N)CCCCN)C(=O)N[C@@H](Cc1c[nH]cn1)C(=O)NCC(=O)N[C@@H](CCSC)C(=O)N[C@@H](C)C(=O)N[C@H](C(=O)O)[C@@H](C)O` [NpHN3] (H-KALHRYACCIHGMAT-OH), the MBC is above 450 µM in assay [2] (DH5α, 2 h, pH 7.2) and above 250 µM in assay [4] (2 h, pH 7.2). In addition, the MIC in assay [2] (DH5α, 2 h, pH 7.2) is 250 to 450 µM; in assay [4] (2 h, pH 7.2) it was 50 to 250 µM.

Take `CC[C@H](C)[C@H](NC(=O)[C@H](CCCNC(=N)N)NC(=O)[C@@H](NC(=O)[C@H](CC(N)=O)NC(=O)[C@H](C)NC(=O)[C@H](CO)NC(=O)[C@H](C)NC(=O)[C@H](CCC(N)=O)NC(=O)[C@@H](NC(=O)CNC(=O)[C@H](Cc1c[nH]cn1)NC(=O)[C@H](CC(C)C)NC(=O)[C@H](CC(C)C)NC(=O)[C@H](Cc1ccccc1)NC(=O)CN)[C@@H](C)CC)C(C)C)C(=O)O` [NpHN4] (H-GFLLHGIQASANVRI-OH): in assay [2] (DH5α, 2 h, pH 7.2), the MBC is above 600 µM and the MIC was 200 to 600 µM. Further, in assay [4] (2 h, pH 7.2), the MBC is above 300 µM and the MIC lay in the range of 100 to 300 µM.

In assay [2] (DH5α, 2 h, pH 7.2), `CC[C@H](C)[C@H](NC(=O)CNC(=O)[C@H](Cc1c[nH]cn1)NC(=O)[C@H](CC(C)C)NC(=O)[C@H](CC(C)C)NC(=O)[C@H](Cc1ccccc1)NC(=O)CNC(=O)[C@H](C)NC(=O)[C@H](Cc1ccccc1)NC(=O)[C@@H](NC(=O)[C@@H](N)CCCNC(=N)N)[C@@H](C)CC)C(=O)NCC(=O)N[C@@H](CCC(N)=O)C(=O)N[C@@H](CO)C(=O)N[C@@H](C)C(=O)O` [NpHN6] (H-RIFAGFLLHGIGQSA-OH) showed an MBC above 500 µM and an MIC of 250 to 500 µM. For the same compound, the MIC in assay [4] (2 h, pH 7.2) lay within 100 to 300 µM.

As usually defined, the MBC is the lowest tested concentration that kills the bacteria rather than only halting them. A high value points to weaker bactericidal potency. Broadly, the MIC is the least concentration at which growth counts as inhibited.
